From ChEMBL document CHEMBL1177867, “Synthesis and antioxidant activity evaluation of a syringic hydrazones family” (Eur J Med Chem, 2010)
Activity calls are given as the source filed them. The calls are words filed in the database; no cut-off is given here.

Experiments:
[1] = Cytotoxicity against HMEC1 cells after 6 hrs by MTT assay; assay type: cell-based; conditions: human, hmec-1, 6 h
[2] = Inhibition of cell-mediated LDL oxidation in HMEC1 cells at 10 uM after 6 hrs by TBARS assay; parameters: scale not given: the % may be the effect or the level left
[3] = system: Radical scavenging activity; assay: Antioxidant activity assessed as DPPH radical scavenging activity after; assay type: functional
[4] = Inhibition against UV-induced LDL oxidation in cell-free system at 10 uM after 2 hrs by TBARS assay; parameters: scale not given: the % may be the effect or the level left
[5] = Inhibition against copper-induced LDL oxidation in cell-free system at 10 uM after 3 hrs by TBARS assay; parameters: scale not given: the % may be the effect or the level left
[6] = Antioxidant activity assessed as trolox equivalents of ABTS radical scavenging activity by TEAC assay; assay type: functional
[7] = Antioxidant activity against superoxide radical generation in HMEC1 cells; assay type: functional, Homo sapiens, HMEC-1
HMEC-1 = assay: Cytoprotective activity against 4HNE-induced cytotoxicity in HMEC1 cells at 25 uM by MTT assay; assay type: functional, cell-based; conditions: Homo sapiens

IC50 [3] | SMILES | Activity [1] | Activity [2] | Activity [4] | Activity [5] | Activity [6] | Activity [7] | Activity (HMEC-1)
17 µM | COc1cc(/C=N/NC(=O)c2ccncc2)cc(OC)c1O | 65% | 7% | 18% | 85% | 1.25 | 22% | 
 | NNC(=O)c1ccncc1 |  |  |  |  |  |  | inactive
 | Cc1c(C)c2c(c(C)c1O)CCC(C)(C(=O)O)O2 (centres undefined) [TROLOX] | 57% | 3% | 18% | 6% |  | 5% | 
18 µM | COc1cc(/C=N/NC(=O)c2cccnc2)cc(OC)c1O | 60% | 5% | 20% | 77% | 1.25 | 44% | 
 | COc1cc(/C=N/Nc2c(Cl)cc(C(F)(F)F)cc2Cl)cc(OC)c1O | 74% | 4% | 15% | 3% | 0.98 | 42% | 
 | COc1cc(/C=N/NC(=O)OCc2ccccc2)cc(OC)c1O | 69% | 3% | 18% | 6% | 1.11 | 50% | 
 | COc1cc(/C=N/Nc2ccccc2F)cc(OC)c1O | 79% | 13% | 16% | 4% | 0.78 | 33% | 
 | COc1cc(/C=N/NC(=O)c2cc(C)n[nH]2)cc(OC)c1O | 69% | 3% | 17% | 4% | 1.15 | 50% | 
 | COc1cc(C(=O)O)cc(OC)c1O |  |  |  |  |  |  | inactive
 | COc1cc(/C=N/NC(=N)N)cc(OC)c1O.Cl | 70% | 10% | 24% | 6% | 0.69 | 36% | 
 | COc1cc(/C=N/Nc2ccc(F)cc2)cc(OC)c1O | 58% | 5% | 18% | 6% | 1.02 | 57% | 
 | COc1cc(/C=N/Nc2nc3ccccc3s2)cc(OC)c1O | 55% | 3% | 17% | 2% | 0.89 | 56% | 
 | COc1cc(/C=N/Nc2nncc3ccccc23)cc(OC)c1O.Cl | 66% | 4% | 18% | 5% | 0.75 | 30% | 
